Patent publication US20150133411A1, “COMPOUNDS WITH TRPV4 ACTIVITY, COMPOSITIONS AND ASSOCIATED METHODS THEREOF” (The University of Utah Research Foundation, priority 2012, published 2015)

Tests used:
[1] = system: retinal neurons (RGCs) and glia (Müller cells); assay: Hypotonic stimuli: cell swelling (change in cell area) and [Ca++]i; type: cell-based; settings: hypotonic stimuli, 300 mOsm to 190 mOsm
Source text: FIG. 18A illustrates the effect of hypotonic stimuli on cell swelling as measured by change in cell area. Hypotonic stimuli were generated by replacing extracellular sodium levels to lower osmolarity from 300 mOsm to 190 mOsm.

MB model of glaucoma = assay: IOP time course after single eye drop in MB model of glaucoma; type: in vivo, mouse; settings: eye drop
Description: Specifically, microbeads (MBs) were injected into the anterior chamber of a mouse eye as described in Example 2 with PBS-injected eyes used as controls. Compound 1 (10 mg/kg body weight) (or PBS vehicle) was injected intraperitoneally (IP). […] IOP was measured in mice between 10:00 AM and 1:00 PM with the TonoLab rebound tonometer (Colonial Medical Supply, Franconia, NH/Tyolat, Helsinki, Finland). Mice were sedated with IP injection of Avertin with final amount calculated by weight (e.g., 0.5 ml for 21-24 g animals). Animals were placed on a jack stand platform and the tonolab was clamped on a ring stand and centered onto the mid-cornea. During measurements animal were neither restrained nor touched. Each eye was measured twenty consecutive times, the highest and lowest values were discarded and the values were averaged.
FIG. 9 illustrates the short-term effects of a single dose of Compound 1 (eye drop) in the MB model of glaucoma. IOP was measured as described in Example 3 at the indicated time points after receiving a drop of Compound 1. Compound 1 reduced IOP beginning at 1 hour after dosing and continued through 6 hours after dosing.
FIG. 10 illustrates a time course of Compounds 1, 2, 5 and Compound 2-HCl as well as a positive control compound, timolol, with regard to inhibition of IOP. The experiment was conducted as described in Example 9. Each of the TRPV4 antagonists reduced IOP with a similar time course. Specifically, Compounds 1, 2, 5 and Compound 2-HCl reduced IOP for at least 6 hours after dosing.
FIG. 11 illustrates a time course of Compound 2-HCl activity. The experiment was conducted as described in Example 9. […] 2
FIG. 12 illustrates a comparison of the time course of Compound 2-HCl and Compound 5. The experiment was conducted as described in Example 9.

retinal ganglion cells [2] = assay: In vivo intraocular injection of GSK, NeuN+ RGC count; settings: intraocular injection 100-300 nM, retinas after 48 hours
Description: In this experiment, GSK (100-300 nM) was injected intraocularly with a Hamilton syringe. Retinas were isolated after 48 hours, fixed and labeled with the RGC marker antibody NeuN. NeuN-immunopositive somata in the ganglion cell layer, shown in the panel on the right, were counted. The bar graph represents quantification of NeuN^+ cells in the indicated experimental groups.

TRPV4 [3] = target: T1, TRPV4 (Mus musculus, UniProt Q9EPK8); assay: AGB cation influx into retinal cells (anti-AGB antibody); type: cell-based; design: these two cell types express TRPV4 channels in the mouse retina; from tissue; host or cells: mouse retina (retinal ganglion cells and Müller glial cells); settings: mouse retina; agonist alone
T1 sequence (Q9EPK8 whole entry): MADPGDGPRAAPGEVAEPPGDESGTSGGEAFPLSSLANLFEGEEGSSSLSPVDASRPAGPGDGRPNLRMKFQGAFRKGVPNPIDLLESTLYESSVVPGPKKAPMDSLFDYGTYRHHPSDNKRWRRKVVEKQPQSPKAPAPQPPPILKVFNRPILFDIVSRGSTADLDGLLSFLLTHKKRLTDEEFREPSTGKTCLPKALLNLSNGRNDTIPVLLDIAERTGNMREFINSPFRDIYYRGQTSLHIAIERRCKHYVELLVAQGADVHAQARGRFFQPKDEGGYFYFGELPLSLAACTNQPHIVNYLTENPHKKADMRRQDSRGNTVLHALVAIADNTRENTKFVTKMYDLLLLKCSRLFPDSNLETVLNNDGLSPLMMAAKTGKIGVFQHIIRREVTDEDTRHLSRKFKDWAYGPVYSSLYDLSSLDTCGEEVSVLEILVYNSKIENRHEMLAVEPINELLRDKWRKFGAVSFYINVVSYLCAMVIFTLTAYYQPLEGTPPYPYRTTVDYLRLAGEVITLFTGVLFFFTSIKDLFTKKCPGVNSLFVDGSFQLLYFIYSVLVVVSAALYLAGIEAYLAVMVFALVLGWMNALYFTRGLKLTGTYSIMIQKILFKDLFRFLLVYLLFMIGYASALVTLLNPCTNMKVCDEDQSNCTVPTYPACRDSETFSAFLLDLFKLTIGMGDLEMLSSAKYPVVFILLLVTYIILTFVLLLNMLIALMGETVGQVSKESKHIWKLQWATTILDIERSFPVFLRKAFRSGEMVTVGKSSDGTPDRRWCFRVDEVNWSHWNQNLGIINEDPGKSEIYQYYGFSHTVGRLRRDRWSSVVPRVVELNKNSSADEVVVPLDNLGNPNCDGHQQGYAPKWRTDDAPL
Description: FIG. 16 illustrates the effect of the TRPV4 agonist GSK on cation influx into mouse retinal cells of the mouse retina. The influx was determined using the anti-AGB antibody, as described by Marc R E (J Comp Neurol 407(1): 47-64, 1999). AGB is a membrane permeant cation that can flow through most known cation channels. Using an anti-AGB antibody, it can be determined where the cation flux occurs and, therefore, which cells are activated.

retinal ganglion cells [4] = assay: TUNEL assay of apoptotic cell death in retinas; type: cell-based
Description: Terminal deoxynucleotidyl transferase-mediated dUTP-biotin nick end labeling (TUNEL) is a common method for detecting fragmentation that results from apoptotic signaling cascades. Retinas were embedded, cryosectioned, and processed for the TUNEL assay following the protocol by Gavrieli et al. (1992). After 30 min. rehydration in 70% ethanol, 2×5 min. rinses in PBS and 1% Triton-X in 1% citrate buffer (pH 7.3), the slides were subjected to a final rinse in PBS. Slides were then incubated for 30 min. in the reaction buffer (30 mM Trizma-HCl, 140 mM cacodylate, 1.0 mM CaCl2, 0.2% Triton X-100, pH 7.2). Positive controls were treated with DNAse I (Roche Diagnostics; Branford, Conn.; 10 U/ml) in the reaction buffer. Next, slides were treated for 1 hour with 0.03 units/μl terminal transferase and 4 μM biotin-16-dUTP (Roche Diagnostics). The reaction was terminated in 30 mM Na+ citrate, 300 mM NaCl and 0.2% Triton X-100 in PBS (5 min.) and rinsed in PBS (2×5 min), exposed to 1% bovine serum albumin in PBS for 20 min and rinsed. Apoptotic cells were visualized with a confocal microscope (Zeiss LSM510) and categorized by size. […] This was blocked by RuR and by the TRPV4 antagonist Compound 1.

TRPV4 [5] = target: T2, TRPV4 (Homo sapiens, UniProt Q9HBA0); assay: Fura-2 calcium imaging of human trabecular meshwork (TM) cells; type: cell-based; settings: bath application 100 nM
T2 construct: endogenous in cells; host or cells: primary human trabecular meshwork cells from trabeculectomy tissue
T2 sequence (Q9HBA0 whole entry): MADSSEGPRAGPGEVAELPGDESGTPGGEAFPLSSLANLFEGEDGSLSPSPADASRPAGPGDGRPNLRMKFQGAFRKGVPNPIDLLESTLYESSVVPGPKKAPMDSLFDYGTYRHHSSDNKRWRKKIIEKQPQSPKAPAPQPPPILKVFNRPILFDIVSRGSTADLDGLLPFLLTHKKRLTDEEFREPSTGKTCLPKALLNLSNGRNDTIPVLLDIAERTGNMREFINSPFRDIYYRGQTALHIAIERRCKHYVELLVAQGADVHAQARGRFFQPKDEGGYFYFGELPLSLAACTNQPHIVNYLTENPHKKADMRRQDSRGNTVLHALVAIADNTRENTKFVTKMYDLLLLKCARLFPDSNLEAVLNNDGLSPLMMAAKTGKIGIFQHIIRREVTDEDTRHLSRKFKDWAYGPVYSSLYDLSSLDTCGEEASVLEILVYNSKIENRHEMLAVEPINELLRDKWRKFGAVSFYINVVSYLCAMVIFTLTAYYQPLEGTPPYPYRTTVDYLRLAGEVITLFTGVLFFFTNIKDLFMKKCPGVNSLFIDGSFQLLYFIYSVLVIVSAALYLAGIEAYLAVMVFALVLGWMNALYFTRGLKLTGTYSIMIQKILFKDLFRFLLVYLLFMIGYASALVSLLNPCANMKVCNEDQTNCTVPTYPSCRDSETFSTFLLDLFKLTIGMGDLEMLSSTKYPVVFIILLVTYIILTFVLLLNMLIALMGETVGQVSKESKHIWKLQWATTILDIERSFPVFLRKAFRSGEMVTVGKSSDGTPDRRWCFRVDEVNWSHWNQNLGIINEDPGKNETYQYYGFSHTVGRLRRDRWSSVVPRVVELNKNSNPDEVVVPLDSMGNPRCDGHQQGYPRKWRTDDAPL
Description: Pieces of tissue were isolated from a trabeculectomy. Trabecular meshwork cells (TM) were kept in cold L15 medium and then loaded with Fura-2 (10 μm) for 1 hour. Fibroblast-shaped cells were imaged from a TM chunk (˜500 μm×500 μm) with a 40× water immersion objective. The sampling rate was at 6 second intervals. Krebs Ringer Bicarbonate Recording buffer (7.4, 284 mOsm) was prepared as reported by Anthony et al., 1998, IOVS; Prostaglandin F2α receptors in the human trabecular meshwork.
Calcium imaging was performed on TM cells isolated from human patients. In brief, dissociated human TM cells embedded within the tissue were dissociated and plated on concanavalin A-coated (0.2 mg/ml; Sigma) coverslips, loaded with fura-2 AM ([…]; Invitrogen Life Technologies) for 15 min-1 hour and washed for 10 min in dye-free L-15 medium. […] Fluorescence emission was high-pass filtered at 510 nm and captured with cooled digital CCD cameras (HQ2, Photometrics). […] Fluorescence imaging was performed on regions of interest (ROIs) encompassing the TM cell somata, typically at 3×3 binning. Background fluorescence was measured in similarly sized ROIs in neighboring areas devoid of cells. After sequential image acquisition (0.167-0.5 Hz) of cell fluorescence at 340/380 nm, the background was subtracted. […]

TRPV4 [6] = target: T1, TRPV4; assay: GSK-evoked [Ca++]i in retinal Müller glial cells; type: cell-based; design: endogenous in cells; host or cells: retinal Müller glial cells; settings: retinal Müller glial cells; agonist alone
Müller cells = assay: Arachidonic acid-induced [Ca2+]i in Müller cells; type: cell-based; settings: 10 μM
Description: This response is blocked by Compound 1 (1 μM).

`CC(=O)OCOC(=O)CN(CC(=O)OCOC(C)=O)c1ccccc1OCCOc1ccccc1N(CC(=O)OCOC(C)=O)CC(=O)OCOC(C)=O` [BAPTA-AM, reference compound] was tested. Which “cell swelling (change in cell area)” value [1] did it give?
Its value is “significantly reduced”.

`Cc1c(C(=O)Nc2cccc(C(=O)OC(C)C)c2)cc(-c2ccccc2)n1CCCN1CCOCC1.Cl` [Compound 2-HCl, iso-propyl 3-(2-methyl-1-(3-morpholinopropyl)-5-phenyl-1H-pyrrole-3-carboxamido)benzoate hydrochloride] was tested. Which “time of maximal inhibition of IOP” value (MB model of glaucoma; after dosing) did it give?
Its value is 6 h.

Which “number of retinal ganglion cells (NeuN+ somata)” value (retinal ganglion cells [2]) does the source give for `CC(C)C[C@H](NC(=O)c1cc2ccccc2s1)C(=O)N1CCN(C(=O)[C@H](CO)NS(=O)(=O)c2ccc(Cl)cc2Cl)CC1` [GSK1016790A, reference compound] here?
The value was “substantially reduces the number of retinal ganglion cells”.

And the “number of AGB+ cells (cation influx)” value (TRPV4 [3])?
The value was “increased the number of AGB^+ retinal ganglion cells and Müller glial cells”.

What about the “death of retinal ganglion cells (TUNEL staining)” value (retinal ganglion cells [4]; 100 nM, agonist alone) of the same compound?
Its value is “induced death of retinal ganglion cells”.

What about the “340/380 fluorescence ratio (intracellular calcium [Ca++]i)” value (TRPV4 [5]) of the same compound?
Its value is “increased 340/380 fluorescence ratio”.

And the “intracellular calcium concentration [Ca++]i” value (TRPV4 [6])?
Its value is “evokes sustained increases”.

`N.N.N.N.N.N.N.N.N.N.N.N.N.N.[Cl-].[Cl-].[Cl-].[Cl-].[Cl-].[Cl-].[O-2].[O-2].[Ru+3].[Ru+3].[Ru+4]` [Ruthenium Red] was tested. Which “apoptotic cell death induced by hypotonic swelling (TUNEL)” value (retinal ganglion cells [4]; 190 mOsm saline, Compound 1 1 uM, RuR 10 μM) did it give?
Its value is “block apoptotic cell death”.

And the “apoptotic cell death induced by TRPV4 agonist GSK (TUNEL)” value (retinal ganglion cells [4]; GSK 100 nM, Compound 1 1 uM, RuR 10 μM)?
Its value is “block apoptotic cell death”.

For `CCCCC/C=C\C/C=C\C/C=C\C/C=C\CCCC(=O)O` [arachidonic acid, reference compound], which “[Ca2+]i response” value (Müller cells) is on record?
Its value is “increase in [Ca2+]i”.

How did the “dose-response curve for inhibition of IOP relative to TRPV4 antagonists” value (MB model of glaucoma; positive control) turn out when `CC(C)(C)NC[C@H](O)COc1nsnc1N1CCOCC1` [timolol, reference compound] was run?
Its value is “left-shifted dose-response curve”.
